Source: US12180193B2, “Accelerating fibrosarcoma protein degrading compounds and associated methods of use” (Arvinas Operations, Inc., priority 2020, dated 2024)

Key:
BRAF V600E = target: T1, BRAF V600E (Homo sapiens, UniProt P15056, V600E); assay: Cellular assay of target protein degradation, T-Rex 293 cells stably transfected with HA-BRAF_V600E (HA immunofluorescence, high content imaging); format: cell-based; conditions: T-Rex 293 HA-BRAF V600E; for DC50: half maximal degradation, read-out: BRaf V600E DC50; for Dmax: maximum degradation observed
T1 construct: expressed in transfected cells
Procedure, shortened: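 Doxycycline-induced (1 ng/mL) cells were treated 24 h at 37 °C with compound at 1 μM to 0.1 nM final in 0.1% DMSO. After fixation, permeabilization and blocking, anti-HA staining was imaged by high-content reading; DC50 and Dmax (% of control) were derived.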

BRAF G466V = target: T2, BRAF G466V (Homo sapiens, UniProt P15056, G466V); assay: Cellular assay of target protein degradation, T-Rex 293 cells stably transfected with HA-BRAF G466V (HA immunofluorescence, high content imaging); format: cell-based; conditions: T-Rex 293 HA-BRAF G466V; for DC50: half maximal degradation, read-out: BRaf G466V DC50; for Dmax: maximum degradation observed
T2 construct: expressed in transfected cells
Procedure, shortened: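 Cells expressing doxycycline-induced (0.75 ng/mL) HA-BRAF G466V were treated with compound at 30 nM to 3 pM in 0.1% DMSO for 24 hours at 37° C. After fixation and permeabilization, HA was immunostained and quantified by high content imaging to derive DC50 and Dmax.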

T1 sequence (P15056 whole entry V600E): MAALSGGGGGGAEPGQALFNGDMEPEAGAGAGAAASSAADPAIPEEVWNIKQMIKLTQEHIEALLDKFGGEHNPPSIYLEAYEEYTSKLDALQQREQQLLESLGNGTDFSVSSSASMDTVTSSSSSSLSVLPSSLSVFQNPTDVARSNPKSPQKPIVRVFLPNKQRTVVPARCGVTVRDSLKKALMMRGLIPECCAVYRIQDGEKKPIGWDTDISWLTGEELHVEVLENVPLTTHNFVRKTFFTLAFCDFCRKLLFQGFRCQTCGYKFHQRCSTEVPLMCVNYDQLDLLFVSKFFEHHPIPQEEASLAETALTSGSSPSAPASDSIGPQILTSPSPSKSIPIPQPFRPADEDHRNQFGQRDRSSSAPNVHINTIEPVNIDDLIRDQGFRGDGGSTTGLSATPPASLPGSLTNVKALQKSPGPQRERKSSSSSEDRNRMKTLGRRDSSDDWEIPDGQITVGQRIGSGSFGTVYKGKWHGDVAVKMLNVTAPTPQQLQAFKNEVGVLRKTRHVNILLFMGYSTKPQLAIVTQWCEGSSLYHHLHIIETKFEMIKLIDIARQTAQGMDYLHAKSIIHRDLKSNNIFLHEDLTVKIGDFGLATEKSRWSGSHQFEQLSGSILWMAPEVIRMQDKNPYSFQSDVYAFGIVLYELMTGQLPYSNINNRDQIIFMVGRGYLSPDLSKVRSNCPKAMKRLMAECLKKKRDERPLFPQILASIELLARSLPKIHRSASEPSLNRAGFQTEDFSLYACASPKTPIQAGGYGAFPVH
T2 sequence (P15056 whole entry G466V): as the sequence (P15056 whole entry V600E) above, with G466V, E600V counted along it

Compound | DC50 (BRAF V600E) [nM] | Dmax (BRAF V600E) [%] | DC50 (BRAF G466V) [nM] | Dmax (BRAF G466V) [%]
COc1cc(OCCN2CCN(CCOc3ccc(-c4cnc5[nH]cc(C(=O)c6c(F)ccc(NS(=O)(=O)N7CC[C@@H](F)C7)c6F)c5c4)cc3)CC2)cc2c1C(=O)N([C@H]1CCC(=O)NC1=O)C2 [Compound 44, (3R)-N-(3-{5-[4-(2-{4-[2-({2-[(3S)-2,6-dioxopiperidin-3-yl]-7-methoxy-1-oxo-2,3-dihydro-1H-isoindol-5-yl}oxy)ethyl]piperazin-1-yl}ethoxy)phenyl]-1H-pyrrolo[2,3-b]pyridine-3-carbonyl}-2,4-difluorophenyl)-3-fluoropyrrolidine-1-sulfonamide] | 5 to 50 | 35 to 70 | < 1 | 35 to 70
COc1cc(OCCN2CCN(CCOc3ccc(-c4cnc5[nH]cc(C(=O)c6c(F)ccc(NS(=O)(=O)N7CC[C@@H](F)C7)c6F)c5c4)cc3)CC2)cc2c1C(=O)N([C@@H]1CCC(=O)NC1=O)C2 [Compound 45, (3R)-N-(3-{5-[4-(2-{4-[2-({2-[(3R)-2,6-dioxopiperidin-3-yl]-7-methoxy-1-oxo-2,3-dihydro-1H-isoindol-5-yl}oxy)ethyl]piperazin-1-yl}ethoxy)phenyl]-1H-pyrrolo[2,3-b]pyridine-3-carbonyl}-2,4-difluorophenyl)-3-fluoropyrrolidine-1-sulfonamide] | 5 to 50 | 35 to 70 | < 1 | 35 to 70
O=C1CCC(N2Cc3cc(C4CCN(CC5CCN(c6ncc(-c7cnc8[nH]cc(C(=O)c9c(F)ccc(NS(=O)(=O)N%10CC[C@@H](F)C%10)c9F)c8c7)cn6)CC5)CC4)ccc3C2=O)C(=O)N1 (stereo partly drawn) [Compound 46, (3R)-N-[3-(5-{2-[4-({4-[2-(2,6-dioxopiperidin-3-yl)-1-oxo-2,3-dihydro-1H-isoindol-5-yl]piperidin-1-yl}methyl)piperidin-1-yl]pyrimidin-5-yl}-1H-pyrrolo[2,3-b]pyridine-3-carbonyl)-2,4-difluorophenyl]-3-fluoropyrrolidine-1-sulfonamide] | 5 to 50 | 35 to 70 | < 1 | > 70
O=C1CCC(N2Cc3cc(N4CC5(CC(CN6CCCc7cc(-c8cnc9[nH]cc(C(=O)c%10c(F)ccc(NS(=O)(=O)N%11CC[C@@H](F)C%11)c%10F)c9c8)ccc76)C5)C4)ccc3C2=O)C(=O)N1 (stereo partly drawn) [Compound 47, (3R)-N-(3-{5-[1-({2-[2-(2,6-dioxopiperidin-3-yl)-1-oxo-2,3-dihydro-1H-isoindol-5-yl]-2-azaspiro[3.3]heptan-6-yl}methyl)-1,2,3,4-tetrahydroquinolin-6-yl]-1H-pyrrolo[2,3-b]pyridine-3-carbonyl}-2,4-difluorophenyl)-3-fluoropyrrolidine-1-sulfonamide] | > 500 | – | 10 to 30 | 35 to 70
O=C1CC[C@@H](NC(=O)c2ccc(C3CCN(CC4CCN(c5ccc(-c6cnc7[nH]cc(C(=O)c8c(F)ccc(NS(=O)(=O)N9CC[C@@H](F)C9)c8F)c7c6)cc5)CC4)CC3)cc2F)C(=O)N1 [Compound 48, 4-(1-{[1-(4-{3-[2,6-difluoro-3-({[(3R)-3-fluoropyrrolidin-1-yl]sulfonyl}amino)benzoyl]-1H-pyrrolo[2,3-b]pyridin-5-yl}phenyl)piperidin-4-yl]methyl}piperidin-4-yl)-N-[(3R)-2,6-dioxopiperidin-3-yl]-2-fluorobenzamide] | 50 to 500 | < 35 | 1 to 10 | < 35
O=C1CCC(N2Cc3cc(C4CCN(CCCc5ccc(-c6cnc7[nH]cc(C(=O)c8c(F)ccc(NS(=O)(=O)N9CC[C@@H](F)C9)c8F)c7c6)cc5)CC4)ccc3C2=O)C(=O)N1 (stereo partly drawn) [Compound 49, (3R)-N-(3-{5-[4-(3-{4-[2-(2,6-dioxopiperidin-3-yl)-1-oxo-2,3-dihydro-1H-isoindol-5-yl]piperidin-1-yl}propyl)phenyl]-1H-pyrrolo[2,3-b]pyridine-3-carbonyl}-2,4-difluorophenyl)-3-fluoropyrrolidine-1-sulfonamide] | 5 to 50 | 35 to 70 | < 1 | 35 to 70
O=C1CCC(N2Cc3cc(N4CC5(CN(CCOc6ccc(-c7cnc8[nH]cc(C(=O)c9c(F)ccc(NS(=O)(=O)N%10CC[C@@H](F)C%10)c9F)c8c7)cc6)C5)C4)ccc3C2=O)C(=O)N1 (stereo partly drawn) [Compound 50, (3R)-N-(3-{5-[4-(2-{6-[2-(2,6-dioxopiperidin-3-yl)-1-oxo-2,3-dihydro-1H-isoindol-5-yl]-2,6-diazaspiro[3.3]heptan-2-yl}ethoxy)phenyl]-1H-pyrrolo[2,3-b]pyridine-3-carbonyl}-2,4-difluorophenyl)-3-fluoropyrrolidine-1-sulfonamide] | 5 to 50 | 35 to 70 | < 1 | > 70
C[C@@]12CN(CC3CCN(c4ccc5c(c4)CN([C@H]4CCC(=O)NC4=O)C5=O)CC3)C[C@@H]1CN(c1ccc(-c3cnc4[nH]cc(C(=O)c5c(F)ccc(NS(=O)(=O)N6CC[C@@H](F)C6)c5F)c4c3)cc1)C2 [Compound 51, (3R)-N-[3-(5-{4-[(3aS,6aR)-5-[(1-{2-[(3S)-2,6-dioxopiperidin-3-yl]-1-oxo-2,3-dihydro-1H-isoindol-5-yl}piperidin-4-yl)methyl]-3a-methyl-octahydropyrrolo[3,4-c]pyrrol-2-yl]phenyl}-1H-pyrrolo[2,3-b]pyridine-3-carbonyl)-2,4-difluorophenyl]-3-fluoropyrrolidine-1-sulfonamide] | 50 to 500 | 35 to 70 | 1 to 10 | 35 to 70
C[C@@]12CN(CC3CCN(c4ccc5c(c4)CN([C@@H]4CCC(=O)NC4=O)C5=O)CC3)C[C@@H]1CN(c1ccc(-c3cnc4[nH]cc(C(=O)c5c(F)ccc(NS(=O)(=O)N6CC[C@@H](F)C6)c5F)c4c3)cc1)C2 [Compound 52, (3R)-N-[3-(5-{4-[(3aS,6aR)-5-[(1-{2-[(3R)-2,6-dioxopiperidin-3-yl]-1-oxo-2,3-dihydro-1H-isoindol-5-yl}piperidin-4-yl)methyl]-3a-methyl-octahydropyrrolo[3,4-c]pyrrol-2-yl]phenyl}-1H-pyrrolo[2,3-b]pyridine-3-carbonyl)-2,4-difluorophenyl]-3-fluoropyrrolidine-1-sulfonamide] | 50 to 500 | < 35 | 1 to 10 | 35 to 70
C[C@@H]1CN(c2ccc(-c3cnc4[nH]cc(C(=O)c5c(F)ccc(NS(=O)(=O)N6CC[C@@H](F)C6)c5F)c4c3)cc2)C[C@H](C)N1CC1CN(c2ccc3c(c2)CN(C2CCC(=O)NC2=O)C3=O)C1 (stereo partly drawn) [Compound 53, (3R)-N-[3-(5-{4-[(3R,5S)-4-({1-[2-(2,6-dioxopiperidin-3-yl)-1-oxo-2,3-dihydro-1H-isoindol-5-yl]azetidin-3-yl}methyl)-3,5-dimethylpiperazin-1-yl]phenyl}-1H-pyrrolo[2,3-b]pyridine-3-carbonyl)-2,4-difluorophenyl]-3-fluoropyrrolidine-1-sulfonamide] | 5 to 50 | 35 to 70 | < 1 | > 70
COc1cc(C2CCN(CC3CC4(C3)CN(c3ccc(-c5cnc6[nH]cc(C(=O)c7c(F)ccc(NS(=O)(=O)N8CC[C@@H](F)C8)c7F)c6c5)cc3)C4)CC2)cc2c1C(=O)N(C1CCC(=O)NC1=O)C2 (stereo partly drawn) [Compound 54, (3R)-N-[3-(5-{4-[6-({4-[2-(2,6-dioxopiperidin-3-yl)-7-methoxy-1-oxo-2,3-dihydro-1H-isoindol-5-yl]piperidin-1-yl}methyl)-2-azaspiro[3.3]heptan-2-yl]phenyl}-1H-pyrrolo[2,3-b]pyridine-3-carbonyl)-2,4-difluorophenyl]-3-fluoropyrrolidine-1-sulfonamide] | 5 to 50 | 35 to 70 | < 1 | 35 to 70
O=C1CC[C@H](N2Cc3cc(N4CCC(CN5CC6(C5)CN(c5ccc(-c7cnc8[nH]cc(C(=O)c9c(F)ccc(NS(=O)(=O)N%10CC[C@@H](F)C%10)c9F)c8c7)cc5)C6)CC4)c(F)cc3C2=O)C(=O)N1 [Compound 55, (3R)-N-{3-[5-(4-{6-[(1-{2-[(3S)-2,6-dioxopiperidin-3-yl]-6-fluoro-1-oxo-2,3-dihydro-1H-isoindol-5-yl}piperidin-4-yl)methyl]-2,6-diazaspiro[3.3]heptan-2-yl}phenyl)-1H-pyrrolo[2,3-b]pyridine-3-carbonyl]-2,4-difluorophenyl}-3-fluoropyrrolidine-1-sulfonamide] | 5 to 50 | 35 to 70 | < 1 | > 70
O=C1CC[C@@H](N2Cc3cc(N4CCC(CN5CC6(C5)CN(c5ccc(-c7cnc8[nH]cc(C(=O)c9c(F)ccc(NS(=O)(=O)N%10CC[C@@H](F)C%10)c9F)c8c7)cc5)C6)CC4)c(F)cc3C2=O)C(=O)N1 [Compound 56, (3R)-N-{3-[5-(4-{6-[(1-{2-[(3R)-2,6-dioxopiperidin-3-yl]-6-fluoro-1-oxo-2,3-dihydro-1H-isoindol-5-yl}piperidin-4-yl)methyl]-2,6-diazaspiro[3.3]heptan-2-yl}phenyl)-1H-pyrrolo[2,3-b]pyridine-3-carbonyl]-2,4-difluorophenyl}-3-fluoropyrrolidine-1-sulfonamide] | 5 to 50 | 35 to 70 | < 1 | > 70
